# Experiments:
# [1] = test system: patients with photosensitive epilepsy (IPS-induced photoparoxysmal EEG response); assay: Intermittent photic stimulation (IPS) photosensitivity model, Phase 2a proof-of-concept study; assay type: in vivo, human
# Procedure: Example 1 evaluated the ability of inhaled alprazolam to rapidly suppress photosensitivity in a double blind placebo-controlled crossover proof of concept study. This study was an in-clinic, randomized, placebo-controlled, double-blind design, 5-way crossover study design, which allowed for small patient size. Epilepsy patients were evaluated using an Intermittent Photic Stimulation model, allowing for screening for antiepileptic effects without triggering seizures or convulsive responses. Three doses of alprazolam were investigated along with placebo (twice) in 5 subjects.
# In patients with photosensitive epilepsy, intermittent photic stimulation was used to elicit generalized epileptiform EEG activity. The subject is exposed to certain frequency of light stimulation (flash frequencies), and photosensitivity range measured. The model has been used to identify antiepileptic effects on a number of drugs.
# The primary objectives of the study were to assess 1) the effects of inhaled alprazolam on the IPS-induced photoparoxysmal EEG response in patients with epilepsy, 2) the sedative properties of these doses in order to select maximally-effective dose with the least sedation for further clinical studies, and 3) overall safety. The primary endpoint was the change in the Standard Photosensitivity Range (SPR) in subjects receiving each dose of inhaled alprazolam.
# (§1) Patients at least 18 years old with photosensitive epilepsy at 3 sites were tested on a baseline day, and then received in randomized order either inhaled placebo (on 2 days) or 0.5, 1 or 2 mg inhaled alprazolam delivered using a hand-held inhaled alprazolam device. Study days were separated by at least 1 week. Presence (and degree) of photosensitivity was measured predose, then at 2 min, 10 min, 30 min, 1, 2, 4 and 6 hours post-dose. Plasma concentration of study drug was measured at each time point. Sedation was assessed at each time point using the 100-mm linear visual analogue scale (VAS).
# The test subjects were exposed to intermittent photic stimulation (14 frequencies, from 2 to 60 Hz), starting with lowest frequency and increasing frequency stepwise until a photosensitivity response was elicited. The test was repeated with the highest frequency and decreased frequency. The results can be summarized in a quantitative measure known as the Standardized Photosensitive Range (SPR). The Maximum SPR is 14. In the example shown, SPR is 8. The Primary endpoint is reduction in mean SPR, which is an indication of antiseizure activity. Patients that have a relatively stable SPR were enrolled in the study to allow for small study size.
# [2] = test system: patients with photosensitive epilepsy; assay: Sedation by visual analogue scale (VAS), Phase 2a study; assay type: in vivo, human
# Procedure: as §1
# (§2) Secondary study endpoints included assessment of sedation using two visual analogue scales (VAS); correlation of plasma concentrations of inhaled alprazolam with PD effects on the SPR range; correlation of plasma concentrations of inhaled alprazolam with PD effects on sedation; and assessment of adverse events and changes in the neurological examination.
# Assessment of the sedation using 2 visual analogue scales was made. […] A correlation of plasma concentrations of inhaled alprazolam with pharmacodynamic effects on sedation was made. […] Maximum sedation occurred within about two minutes of administration of alprazolam. Clinical observations support early onset of sedation at 30 seconds.
# [3] = Plasma concentration of alprazolam in phase 1 and phase 2a clinical trials; assay type: in vivo, human
# Procedure: as §1
# FIGS. 5A and 5B show graphs of the mean plasma concentration of alprazolam in phase 1 and phase 2a clinical trials respectively. The graphs indicate a rapid uptake of alprazolam into the plasma after […] administration of the condensation aerosol. […] Mean peak plasma concentration occurred one to two minutes after administration of the alprazolam […] aerosol.
# [4] = test system: patients with photosensitive epilepsy; assay: Adverse events and tolerability, Phase 2a study; assay type: in vivo, human; details: for Cough, subjects with adverse event / Dizziness, subjects with adverse event / Dysgeusia, subjects with adverse event / Oral Dysaesthesia, subjects with adverse event / Sedation/somnolence, subjects with adverse event: N = 5
# Excerpt: as §2
# An assessment of adverse events and changes in the neurological examination were made. The safety profile was consistent with oral alprazolam.
# [5] = Pharmacokinetic study in dogs, intravenous or inhalation administration; details: dog, in vivo
# Excerpt: In a pharmacokinetic (PK) study in dogs, alprazolam PK was profiled following either intravenous or inhalation administration.
# dogs [6] = assay: 5-day exploratory inhalation toxicity study in dogs; assay type: in vivo; details: 5-day inhalation
# Procedure: In a 5-day exploratory inhalation toxicity study in dogs, the no-observed-adverse-effect level was 1.5 mg/kg/day for treatment-related histopathological findings.
# dogs [7] = assay: Cardiovascular and respiratory safety study in dogs, intravenous dosing; assay type: in vivo
# Procedure: However, these changes were within normal ranges and not considered biologically significant. The plasma concentration of alprazolam associated with modest cardiovascular or respiratory effects exceeded 900 ng/mL and would not be expected to induce any significant changes at the range of doses planned considered for clinical studies (0.5 to 2.0 mg).
# rat = assay: Rat inhalation MTD study; assay type: in vivo
# rats = assay: 14-day inhalation toxicity study in rats; assay type: in vivo
# Procedure: In the 14-day inhalation toxicity study in rats, the no-adverse-effect level was considered to be 10.3 mg/kg/day.
# drug transporter = assay: In vitro drug transporter inhibition potential; assay type: in vitro ADME; details: maximum alprazolam concentration tested
# Excerpt: (§3) In vitro drug transporter and cytochrome P450 inhibition potential were also studied.
# cytochrome P450 = assay: In vitro cytochrome P450 inhibition potential; assay type: in vitro ADME; details: maximum alprazolam concentration tested
# Excerpt: as §3
# [8] = Aerosol particle size distribution by Next Generation Pharmaceutical Impactor (NGI); assay type: physicochemical; details: condensation aerosol, FIG. 4
# Excerpt: At least 80% by weight of the alprazolam aerosol particles have a size less than 5 microns, preferably at least 90% by weight of the alprazolam aerosol particles have a size less than 5 microns. At least 50% by weight of the alprazolam aerosol particles have a size less than 2 microns, preferably at least 50% by weight of the alprazolam aerosol particles have a size less than 1 micron. The Next Generation Pharmaceutical Impactor (NGI) was used to determine the particle size distribution.
# [9] = cited from earlier work
# dogs [10] = assay: 28-day GLP inhalation toxicity study with 14-day recovery in dogs; details: 28-day inhalation
# [11] = all treatment arms of the crossover (incl. placebo)
compound,measurement,setting,value
"Cc1nnc2n1-c1ccc(Cl)cc1C(c1ccccc1)=NC2 [alprazolam, 8-chloro-1-methyl-6-phenyl-4H-[1,2,4]triazolo [4,3-α][1,4]-benzodiazepine]",effect on photosensitivity,[1]; 1 mg and 2 mg doses,almost complete elimination of the photosensitivity
same,time reduction of SPR was maintained,[1]; after administration,at least six
same,change in mean standardized photosensitivity range (SPR),"[1]; all doses (0.5, 1, 2 mg inhaled)",decreased
same,time to maximal or near-maximal effect on SPR,"[1]; all doses, post dose",≤ 2 min
same,maximal decrease in SPR,[1]; at least at the earlier time points,approximately 5 steps
same,duration of effects on SPR,[1]; higher doses,4 h
same,onset of SPR response,[1]; in vivo,less than two
same,time to suppression of epileptic activity / effects on EEG,[1]; patients with photosensitive epilepsy,≤ 2 min
same,epileptiform activity in post-dose EEG traces,"[1]; representative patient, FIG. 7B",complete abolishment of epileptiform activity
same,"sedation, relation to dose","[2]; 0.5, 1, 2 mg",dose related
same,time to maximum sedation (VAS),[2]; after administration,two
same,"early onset of sedation, clinical observations",[2]; in vivo,30 s
same,onset of VAS (sedation) response,[2]; in vivo,less than two
same,"PK analysis, plasma concentrations versus dose","[3]; 0.5, 1, 2 mg",dose proportionality
same,time of mean peak plasma concentration,[3]; after administration of condensation aerosol,one to two
same,"rapid rise in alprazolam plasma levels, time",[3]; inhaled,less than 2 min
same,"Cough, subjects with adverse event",[4]; 0.5 mg,2 n
same,"Dizziness, subjects with adverse event",[4]; 0.5 mg,1 n
same,"Dysgeusia, subjects with adverse event",[4]; 0.5 mg,2 n
same,"Oral Dysaesthesia, subjects with adverse event",[4]; 0.5 mg,2 n
same,"Sedation/somnolence, subjects with adverse event",[4]; 0.5 mg,1 n
same,"Cough, subjects with adverse event",[4]; 1 mg,1 n
same,"Dizziness, subjects with adverse event",[4]; 1 mg,0 n
same,"Dysgeusia, subjects with adverse event",[4]; 1 mg,2 n
same,"Oral Dysaesthesia, subjects with adverse event",[4]; 1 mg,0 n
same,"Sedation/somnolence, subjects with adverse event",[4]; 1 mg,2 n
same,"Cough, total number of subjects experiencing an event",[4]; [11],2
same,"Dizziness, total number of subjects experiencing an event",[4]; [11],1
same,"Dysgeusia, total number of subjects experiencing an event",[4]; [11],2
same,"Oral Dysaesthesia, total number of subjects experiencing an event",[4]; [11],2
same,"Sedation/somnolence, total number of subjects experiencing an event",[4]; [11],2
same,serious adverse events,"[4]; doses up to 2 mg, listed as inhaled alprazolam",no reported serious adverse events
same,tolerability of treatment,[4]; in vivo,well tolerated
same,Tmax,"[5]; inhaled or intranasal, inhalation",< 1 min
same,bioavailability,"[5]; inhaled, inhalation versus intravenous",85 to 96%
same,no-observed-adverse-effect level for treatment-related histopathological findings,dogs [6],1.5 mg/kg/day
same,plasma concentration associated with modest cardiovascular or respiratory effects,dogs [7]; intravenous,exceeded 900 ng/mL
same,heart rate,dogs [7]; intravenous over 5 sec,transient increase
same,respiratory rate,dogs [7]; intravenous over 5 sec,transient decrease
same,single inhaled dose well tolerated,rat,up to 10.8 mg/kg
same,no-adverse-effect level,rats,10.3 mg/kg/day
same,drug transporter inhibition,drug transporter,No inhibition
same,cytochrome P450 inhibition,cytochrome P450,No inhibition
same,mass median aerodynamic diameter (MMAD) of aerosol particles,[8],1.2 to 1.8 microns
same,solubility in chloroform,[9]; chloroform,freely soluble
same,solubility in ethanol,[9]; ethanol,soluble
same,solubility in methanol,[9]; methanol,soluble
same,solubility in water,[9]; water,practically insoluble
same,deaths during the study,dogs [10],no deaths
same,immunogenic potential,dogs [10],no immunoglobulin or hypersensitivity response
same,no-observed-effect level for histopathological findings,dogs [10]; females,4.4 mg/kg/day
same,no-observed-effect level for histopathological findings,dogs [10]; males,2.8 mg/kg/day
